Source: the NIST ThermoML archive (doi:10.1016/j.jct.2018.12.019)

Tests used:
[1] = excess molar enthalpy (molar enthalpy of mixing); xn = mol fraction of the nth substance listed; details: 298.15 K, 98 kPa, Liquid, Calvet calorimetry
[2] = xn = mol fraction of the nth substance listed; details: 98 kPa, Liquid; for speed of sound: Frequency=3 MHz, Single path-length method; for mass density: Vibrating tube method

Cn1ccnc1 [1-methylimidazole] + CCO
[1]
Details | excess molar enthalpy [kJ/mol]
x1 = 0.0523 | -0.188
x1 = 0.1012 | -0.357
x1 = 0.2013 | -0.629
x1 = 0.3057 | -0.811
x1 = 0.4037 | -0.963
x1 = 0.5087 | -0.998
x1 = 0.5987 | -0.831
x1 = 0.7146 | -0.636
x1 = 0.8003 | -0.438
x1 = 0.8861 | -0.259
x1 = 0.9463 | -0.144
x1 = 1 | 0

[2]
Details | mass density, 288.15 K [kg/m3] | mass density, 298.15 K [kg/m3] | mass density, 308.15 K [kg/m3] | mass density, 318.15 K [kg/m3] | mass density, 328.15 K [kg/m3] | speed of sound, 288.15 K [m/s] | speed of sound, 298.15 K [m/s] | speed of sound, 308.15 K [m/s] | speed of sound, 318.15 K [m/s] | speed of sound, 328.15 K [m/s]
x1 = 0.0511 | 812.59 | 803.97 | 795.24 | 786.37 | 777.3 | 1210.6 | 1176.2 | 1141.9 | 1108 | 1074.3
x1 = 0.1012 | 829.84 | 821.16 | 812.37 | 803.49 | 794.35 | 1240.8 | 1206.2 | 1171.7 | 1137.5 | 1103.7
x1 = 0.2006 | 861.64 | 852.87 | 844 | 835.02 | 825.9 | 1296.9 | 1261.9 | 1227 | 1192.5 | 1158.3
x1 = 0.3012 | 891.28 | 882.45 | 873.53 | 864.53 | 855.41 | 1350 | 1314.7 | 1279.5 | 1244.6 | 1210.1
x1 = 0.3955 | 916.81 | 907.94 | 899 | 889.99 | 880.88 | 1396.8 | 1361.2 | 1325.7 | 1290.5 | 1255.7
x1 = 0.5 | 942.71 | 933.82 | 924.87 | 915.86 | 906.77 | 1445.7 | 1409.8 | 1373.8 | 1338.3 | 1303
x1 = 0.5994 | 965.25 | 956.36 | 947.41 | 938.4 | 929.34 | 1489.5 | 1453 | 1416.7 | 1380.7 | 1345.1
x1 = 0.7066 | 987.5 | 978.61 | 969.67 | 960.68 | 951.65 | 1533 | 1496.1 | 1459.3 | 1423 | 1386.9
x1 = 0.8063 | 1006.58 | 997.7 | 988.78 | 979.82 | 970.81 | 1570.7 | 1533.5 | 1496.3 | 1459.6 | 1423.3
x1 = 0.902 | 1023.35 | 1014.49 | 1005.59 | 996.65 | 987.68 | 1603.2 | 1565.8 | 1528.4 | 1491.4 | 1454.8
x1 = 0.9505 | 1031.47 | 1022.63 | 1013.75 | 1004.83 | 995.88 | 1619 | 1581.5 | 1544 | 1507 | 1470.2
x1 = 1 | 1039.36 | 1030.52 | 1021.66 | 1012.76 | 1003.83 | 1634.1 | 1596.5 | 1559 | 1521.8 | 1485

Cn1ccnc1 [1-methylimidazole] + CO
[2]
Details | mass density, 288.15 K [kg/m3] | mass density, 298.15 K [kg/m3] | mass density, 308.15 K [kg/m3] | mass density, 318.15 K [kg/m3] | mass density, 328.15 K [kg/m3] | speed of sound, 288.15 K [m/s] | speed of sound, 298.15 K [m/s] | speed of sound, 308.15 K [m/s] | speed of sound, 318.15 K [m/s] | speed of sound, 328.15 K [m/s]
x1 = 0.0507 | 822.81 | 813.46 | 804.03 | 794.49 | 784.81 | 1185.2 | 1151.8 | 1118.6 | 1085.8 | 1053.3
x1 = 0.1009 | 846.62 | 837.31 | 827.92 | 818.41 | 808.78 | 1230.7 | 1196.9 | 1163.2 | 1130 | 1097.2
x1 = 0.1961 | 884.53 | 875.26 | 865.91 | 856.48 | 846.92 | 1305.4 | 1270.8 | 1236.4 | 1202.4 | 1168.7
x1 = 0.296 | 918.09 | 908.87 | 899.58 | 890.21 | 880.75 | 1374 | 1338.8 | 1303.7 | 1268.9 | 1234.5
x1 = 0.3988 | 946.5 | 937.33 | 928.11 | 918.82 | 909.45 | 1434.1 | 1398.4 | 1362.7 | 1327.4 | 1292.4
x1 = 0.5058 | 969.95 | 960.86 | 951.71 | 942.51 | 933.23 | 1484.7 | 1448.5 | 1412.4 | 1376.6 | 1341.1
x1 = 0.6096 | 989.14 | 980.11 | 971.04 | 961.92 | 952.74 | 1526.2 | 1489.6 | 1453 | 1416.8 | 1380.9
x1 = 0.7023 | 1003.69 | 994.72 | 985.72 | 976.66 | 967.55 | 1558 | 1521.2 | 1484.3 | 1447.8 | 1411.7
x1 = 0.8018 | 1017.21 | 1008.3 | 999.35 | 990.36 | 981.32 | 1587.5 | 1550.4 | 1513.3 | 1476.5 | 1440.5
x1 = 0.8994 | 1028.89 | 1020.02 | 1011.12 | 1002.18 | 993.19 | 1612.9 | 1575.6 | 1538.2 | 1501.2 | 1464.5
x1 = 0.951 | 1034.48 | 1025.61 | 1016.76 | 1007.87 | 998.91 | 1625 | 1587.6 | 1550.1 | 1513 | 1476.2
x1 = 1 | 1039.36 | 1030.52 | 1021.66 | 1012.76 | 1003.83 | 1634.1 | 1596.5 | 1559 | 1521.8 | 1485

Cn1ccnc1 [1-methylimidazole] + O
[2]
Details | mass density, 288.15 K [kg/m3] | mass density, 298.15 K [kg/m3] | mass density, 308.15 K [kg/m3] | mass density, 318.15 K [kg/m3] | mass density, 328.15 K [kg/m3] | speed of sound, 288.15 K [m/s] | speed of sound, 298.15 K [m/s] | speed of sound, 308.15 K [m/s] | speed of sound, 318.15 K [m/s] | speed of sound, 328.15 K [m/s]
x1 = 0.0521 | 1011.8 | 1007.6 | 1002.76 | 997.34 | 991.41 | 1581.3 | 1587 | 1588.8 | 1586.8 | 1581.4
x1 = 0.1076 | 1022.54 | 1016.8 | 1010.63 | 1004.04 | 997.06 | 1645.6 | 1636.9 | 1625.7 | 1612.2 | 1596.3
x1 = 0.2035 | 1035.77 | 1028.46 | 1020.89 | 1013.06 | 1004.95 | 1705.3 | 1682.6 | 1658.4 | 1633.1 | 1606.6
x1 = 0.3041 | 1044.45 | 1036.28 | 1027.92 | 1019.36 | 1010.6 | 1731.5 | 1707.2 | 1669.9 | 1638.1 | 1605.7
x1 = 0.4017 | 1048.95 | 1040.34 | 1031.57 | 1022.64 | 1013.55 | 1735.5 | 1701.4 | 1667.7 | 1631.6 | 1596.3
x1 = 0.5053 | 1050.2 | 1041.41 | 1032.48 | 1023.41 | 1014.19 | 1723.2 | 1687.5 | 1651.3 | 1615 | 1578.4
x1 = 0.6052 | 1048.91 | 1040.12 | 1031.21 | 1022.16 | 1012.98 | 1702.4 | 1666.6 | 1630.2 | 1593.7 | 1557
x1 = 0.7018 | 1046.64 | 1037.87 | 1028.99 | 1020.01 | 1010.92 | 1681.9 | 1645.8 | 1609.4 | 1573 | 1536.5
x1 = 0.8044 | 1043.96 | 1035.17 | 1026.32 | 1017.39 | 1008.38 | 1662.5 | 1626 | 1589.3 | 1552.7 | 1516.3
x1 = 0.9031 | 1041.64 | 1032.83 | 1023.98 | 1015.07 | 1006.1 | 1647.8 | 1610.9 | 1573.7 | 1536.9 | 1500.3
x1 = 0.9555 | 1040.49 | 1031.66 | 1022.8 | 1013.91 | 1004.96 | 1640.8 | 1603.8 | 1566.4 | 1529.3 | 1492.6
x1 = 1 | 1039.36 | 1030.52 | 1021.66 | 1012.76 | 1003.83 | 1634.1 | 1596.5 | 1559 | 1521.8 | 1485
